These results are taken from patent publication US10004785B2, “LKKTET and/or LKKTNT peptide compositions which are lyophilized or in a form capable of being lyophilized” (RegeneRX Biopharmaceuticals, Inc., priority 2005, dated 2018).

Assay [1] deals with Human corneal epithelial cells. Put plainly: colorimetric BrdU incorporation assay (cell proliferation). It is filed as cell-based. The following applies: 1 mcg/ml Tβ4, 3 and 24 hour time points. The procedure: (§1) Human corneal epithelial cells at approximately 80% confluence were treated with 0%, 0.001%, 0.01%, or 0.1% BAK for 15 minutes. After 3 and 24 hours of recovery in culture medium, cell proliferation was measured using a colorimetric BrdU incorporation assay. Apoptosis was measured using a colorimetric annexin-based cell death assay. […] To further assess the ability of Tb4 to prevent apoptosis, corneal epithelial cells were treated with 0.01% BAK±Tβ4 over a 5 day time course.
A general note: Dividing cells build labelled thymidine or BrdU into new DNA.

Assay [2] relates to Human corneal epithelial cells. Briefly: colorimetric annexin-based cell death assay (apoptosis). The following applies: 1 mcg/ml Tβ4, 3 and 24 hour time points. Here is the method: as §1

Take “Thymosin beta 4 (SDKPDMAEIEKFDKSKLKKTETQEKNPLPSKETIEQEKQAGES; Thymosin beta-4; UniProt P62328 2-44, looked up) [Tβ4, a 43 amino acid, 4.9 kDa ubiquitous polypeptide originally isolated from the thymus]”: the “cell proliferation of BAK-treated corneal epithelial cells” value in assay [1] is “not promoted”. For the same substance, in assay [2], the “apoptosis of BAK-treated corneal epithelial cells” value is “not inhibited”.
